According to patent US3947411A, “Novel 1-aryl-2-arylalkyl-3-or-4-[4'-(substituted-alkyl)piperazino-1']butanols- 2-or-butenes-1, and methods of manufacture thereof” (Warner-Lambert Company, priority 1972, dated 1976):
Values after ≈ are worked out from the molar mass of the structure shown.

What was measured:
[1] = tested on: Candida albicans; assay: Agar well inhibition zone test against fungi, Candida albicans (Table II); settings: quantity per well giving inhibition zone (500, 50, 5 μg tested); Sabouraud agar, 28°, 48 hours
Experimental: (§1) The efficacy of the compounds against fungi was tested as follows:
(§2) The test organisms, in this case the blastomycete Candida albicans and the mold Aspergillus niger, were inoculated onto Sabouraud agar plates by pouring a photometrically adjusted standard suspension of organisms on the plate. After inoculation, wells with a diameter of 5.0 mm were punched in the agar, and filled with 50 ul of the compound solution mentioned before. The quantity of compound applied thus amounted to 500 μg, 50 μg and 5 μg. After incubation at 28° for 48 hours, the quantity of compound was determined at which an inhibition of the organism's growth, in form of an inhibition zone around the corresponding well, was present.

[2] = tested on: A. niger; assay: Minimum inhibitory concentration for fungi, tube dilution, A. niger (Table IV); settings: Aspergillus niger, 48 h, read-out: Minimum Inhibitory Concentration, A. niger
Experimental: (§3) A tube dilution series of the respective compound in Sabouraud nutrient broth, whose individual tubes contained concentrations of 1024 μg, 512 μg, 256 μg, 128 μg, 64 μg, 32 μg, 16 μg, 8 μg, 4 μg, 2 μg, 1.1 μg and 0.5 μg/ml, was prepared and inoculated with a photometrically standardized suspension of the test organisms or the spores thereof.

[3] = tested on: C. albicans; assay: Minimum inhibitory concentration for fungi, tube dilution, C. albicans (Table IV); settings: Candida albicans, 48 h, read-out: Minimum Inhibitory Concentration, C. albicans
Experimental: as §3

[4] = tested on: Staphylococcus aureus; assay: Agar well inhibition zone test against bacteria, Staphylococcus aureus (Table III); settings: quantity per well giving inhibition zone (500, 50, 5 μg tested); nutrient agar, 37°, 24 hours
[5] = Solubility in water; format: physicochemical; settings: hydrochlorides or oxalates, read-out: solubilities (in water)
In short: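 Water solubility given for the hydrochloride salts of most compounds and for the oxalate salts of a few.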

[6] = tested on: E. coli; assay: Minimum inhibitory concentration for bacteria, tube dilution, E. coli (Table V); format: cell-based; settings: Escherichia coli, 48 h, read-out: Minimum Inhibitory Concentration, E. coli
[7] = tested on: Aspergillus niger; assay: Agar well inhibition zone test against fungi, Aspergillus niger (Table II); settings: quantity per well giving inhibition zone (500, 50, 5 μg tested); Sabouraud agar, 28°, 48 hours
Experimental: as §1, §2

[8] = tested on: C. albicans; assay: Minimum inhibitory concentration for fungi in presence of serum, C. albicans (Table VI); format: cell-based; settings: Candida albicans; Sabouraud nutrient broth + 10% bovine serum, 28°C, 48 hours
[9] = tested on: Staph. aureus; assay: Minimum inhibitory concentration for bacteria, tube dilution, Staph. aureus (Table V); settings: Staphylococcus aureus, 48 h, read-out: Minimum Inhibitory Concentration, Staph. aureus
Experimental: A tube dilution series of the respective compound in nutrient broth whose individual tubes contained concentrations of 1024 μg, 512 μg, 256 μg, 128 μg, 64 μg, 32 μg, 1 μg, 8 μg, 4 μg, 2 μg, 1.1 μg and 0.5 μg/ml was prepared and inoculated with a photometrically standardized suspension of the test organisms.

[10] = tested on: Escherichia coli; assay: Agar well inhibition zone test against bacteria, Escherichia coli (Table III); settings: quantity per well giving inhibition zone (500, 50, 5 μg tested); nutrient agar, 37°, 24 hours
Experimental: The efficacy of the compounds against bacteria was tested as follows:
The test organisms, in this case Staphylococcus aureus and Escherichia coli, were inoculated on nutrient agar as described in Example 12, wells were punched, and the solutions of the compounds were transferred to fill the wells. The quantity of compound in the wells amounted again to 500 μg, 50 μg and 5 μg.
After incubation a 37° for 24 hours the quantity of compound was determined at which an inhibition of the organism's growth, in the form of an inhibition zone around the corresponding well, occurred.

[11] = tested on: A. niger; assay: Minimum inhibitory concentration for fungi in presence of serum, A. niger (Table VI); format: cell-based; settings: Aspergillus niger; Sabouraud nutrient broth + 10% bovine serum, 28°C, 48 hours
[12] = tested on: E. coli; assay: Minimum inhibitory concentration for bacteria in presence of serum, E. coli (Table VII); format: cell-based; settings: Escherichia coli; nutrient broth + 10% serum, 37°C, 48 hours
[13] = tested on: Mycobacterium tuberculosis II 37 RV (typus humanus); assay: Efficacy against Mycobacteria, Tb-broth dilution series (Table I); format: cell-based; settings: 504 h, Dubos Tb-broth + 10% bovine serum, 21 days, read-out: Minimum Inhibitory Concentration

Row | Structure (SMILES) | Inhibition Area at μg, Cand. albicans [1] | MIC [2] | MIC [3] | Inhibition Area at μg, Staph. aureus [4] | solubility [5] | MIC [6] | Inhibition Area at μg, Asp. niger [7] | MIC [8] | MIC [9] | Inhibition Area at μg, E. coli [10] | MIC [11] | MIC [12] | MIC [13]
1 | CC(C(=Cc1ccccc1)Cc1ccccc1)N1CCN(CCN2CCN(CCc3ccccc3)CC2)CC1 (stereo not drawn) [XXXIX, 1-phenyl-2-benzyl-3-{4'-[β-(4"-β-phenethylpiperazino-1")-ethyl]-piperazino-1'}-butene-1] | 5 µg | 32 µg/mL (≈ 61.2 µM) | 4 µg/mL (≈ 7.65 µM) | 5 µg | 50 mg/mL (≈ 95600 µM) | > 1020 µg/mL | 5 µg | 64 µg/mL | 32 µg/mL (≈ 61.2 µM) | 50 µg | 128 µg/mL | – | –
2 | CC(C(=Cc1ccccc1)Cc1ccccc1)N1CCN(CCN(C)C)CC1 (stereo not drawn) [XXVI, 1-phenyl-2-benzyl-3-[4'-(β-dimethylamino-ethyl)-piperazino-1']-butene-1] | 5 µg | 4 µg/mL (≈ 10.6 µM) | 8 µg/mL (≈ 21.2 µM) | 50 µg | 100 mg/mL (≈ 265000 µM) | 128 µg/mL (≈ 339 µM) | 5 µg | 16 µg/mL | 128 µg/mL (≈ 339 µM) | 50 µg | 32 µg/mL | – | –
3 | CC(N1CCN(C)CC1)C(O)(Cc1ccc(Cl)cc1)Cc1ccc(Cl)cc1 (centres unmarked) [XLVIII, 1-p-chlorophenyl-2-p-chlorobenzyl-3-(4'-methyl-piperazino-1')-butanol-2] | 50 µg | 4 µg/mL (≈ 9.82 µM) | 8 µg/mL (≈ 19.6 µM) | 50 µg | 50 mg/mL (≈ 123000 µM) | > 1020 µg/mL | 50 µg | > 1020 µg/mL | 128 µg/mL (≈ 314 µM) | 50 µg | 256 µg/mL | – | –
4 | CCCCCCCC[N+](C)(C)CCN1CCN(C(C)C(=Cc2ccccc2)Cc2ccccc2)CC1 (stereo not drawn) [XLIII, Dimethyl-n-octyl-β-[4-(1'-phenyl-2'-benzylbutene-1'-yl-3')-piperazino-1]-ethyl-ammoniumbromide] | 5 µg | < 0.5 µg/mL | < 0.5 µg/mL | 5 µg | < 10 mg/mL | 1 µg/mL | 5 µg | 128 µg/mL | < 0.5 µg/mL | 5 µg | 64 µg/mL | 128 µg/mL | –
5 | CCCCCCCCN1CCN(CCCCCCN2CCN(C(C)C(=Cc3ccccc3)Cc3ccccc3)CC2)CC1 (centres unmarked) [LXII, 1-phenyl-2-benzyl-3-[4'-w-(4"-n-octyl-piperazino-1")-n-hexyl-piperazino-1']-butene-1] | 5 µg | < 0.5 µg/mL | 2 µg/mL (≈ 3.41 µM) | 5 µg | 25 mg/mL (≈ 42600 µM) | 1020 µg/mL (≈ 1740 µM) | 50 µg | 1020 µg/mL | 16 µg/mL (≈ 27.3 µM) | 50 µg | 512 µg/mL | – | –
6 | CC(C(=Cc1ccccc1Cl)Cc1ccccc1Cl)N1CCN(CCN2CCN(C)CC2)CC1 (centres unmarked) [LXVI] | 5 µg | < 0.5 µg/mL | 4 µg/mL (≈ 7.98 µM) | 5 µg | 100 mg/mL (≈ 199000 µM) | 128 µg/mL (≈ 255 µM) | 5 µg | 1020 µg/mL | 32 µg/mL (≈ 63.8 µM) | 50 µg | 128 µg/mL | – | –
7 | CC(C(=Cc1ccccc1)Cc1ccccc1)N1CCN(CCN2CCCCC2)CC1 (stereo not drawn) [XXX, 1-phenyl-2-benzyl-3-[4'-(β-piperidino-ethyl)-piperazino-1']-butene-1] | 50 µg | 32 µg/mL (≈ 76.6 µM) | 16 µg/mL (≈ 38.3 µM) | 50 µg | 10 mg/mL (≈ 23900 µM) | – | 5 µg | 256 µg/mL | 128 µg/mL (≈ 306 µM) | 500 µg | 32 µg/mL | – | 50 µg/mL
8 | CC(C(=Cc1ccccc1)Cc1ccccc1)N1CCN(CCN2CCCC2)CC1 (stereo not drawn) [XXIX, 1-phenyl-2-benzyl-3-[4'-(β-pyrrolidino-ethyl)-piperazino-1']-butene-1] | 50 µg | 16 µg/mL (≈ 39.6 µM) | 8 µg/mL (≈ 19.8 µM) | 50 µg | 100 mg/mL (≈ 248000 µM) | – | 50 µg | 128 µg/mL | 128 µg/mL (≈ 317 µM) | 500 µg | 32 µg/mL | – | 10 µg/mL
